Test results taken from patent US20250270170A1, “2,3-DIMETHOXY-5-METHYL-1,4-BENZOQUINONE ALKYL ALCOHOL DERIVATIVE AND USE THEREOF” (BEIJING ANJIANXI BIO-MEDICAL TECHNOLOGY CO., LTD., priority 2021, published 2025).
“And” between values parts separate entries of the source, which are not always exact repeats. Equal entries are not always repeated.

Key:
[1] = Example 8: body weight of ECA109 tumor-bearing mice; format: in vivo, nude mice; conditions: DDP 5 mg/kg i.p. QW×4
Description: The assay animals, calculation of tumor volume (TV), end of assay, data recording, calculation formula of tumor growth inhibition rate TGI (%), and statistical analysis method were the same as those in Example 3; the preparation of the administration formulation of the compound of formula (I) was the same as that in Example 5. […] The cells were pipetted with a pipette to disperse them evenly, and the cells were put into a 50-mL centrifuge tube, which was placed in an ice box. A 1-mL syringe was used to draw the cell suspension, which was injected subcutaneously into the axilla of the front right limb of a […]. Each animal was inoculated with 200 μL (1.0×10^7 cells/mouse) to establish an ECA109 transplanted tumor model in nude mice. After the inoculation, the animal status and tumor growth were regularly observed, and the tumor diameter was measured using an electronic vernier caliper. The data were input into an Excel spreadsheet to calculate the tumor volume. When the tumor volume reached 100 to 300 mm^3, animals in good health and with similar tumor volumes were selected and divided into groups using randomized block method. The day of grouping was regarded as the first day of the assay (D1). After the start of the assay, the tumor diameter was measured twice a week, the tumor volume was calculated, and the animal body weight was also weighed and recorded. [table]

A549 cells = assay: Colony formation assay, A549; format: cell-based, human; conditions: 50 μM and 150 μM vs 0 μM, about 2 weeks
Description: (1) The cell status was observed under a microscope. Cells in the logarithmic growth phase were selected and digested to make a cell suspension. 20 μl of the cell suspension was taken with a pipette and added to the CountStar disposable cell counting plate for cell counting, and the counting results were recorded.
(2) A 6-well culture plate was used for colony formation assay. Approximately 1,000 cells were inoculated into each well, and the complete culture medium was added to make up the volume to 2.5 ml per well. The cells were shaked in a figure-8 pattern to disperse the cells evenly. The next day, the compound of formula (I) at different concentrations (0 μM, 50 μM, and 150 μM) were added to the corresponding wells according to the assay plan, and incubated in an incubator at 37° C. with 5% CO2 for about 2 weeks. The culture was terminated when visible colonies appeared.
(3) The culture plate was taken out, and the old culture medium was discarded. The cells were gently washed twice with PBS.
(4) 500 μl of 4% paraformaldehyde fixative was added to each well to fix the cells at room temperature for 15 minutes, and then the fixative was discarded.
(5) 500 μl of 0.1% crystal violet solution was added to each well, and cells were stained at room temperature for at least 15 minutes. The crystal violet was discarded, and the staining solution was slowly washed away with running water. […]

[2] = system: cisplatin-induced acute kidney damage in mice; assay: Example 11: serum urea nitrogen (Bun) in cisplatin-induced acute kidney damage model; format: in vivo, C57BL/6J mice; conditions: for serum urea nitrogen value vs model group: P>0.05; for Urea nitrogen (Bun) level after the assay, x (mean): group mean; for Urea nitrogen (Bun) level after the assay, x (mean) / Urea nitrogen (Bun) level after the assay: cisplatin model; for Urea nitrogen (Bun) level after the assay: individual animals No. 1-7
Description: 42 male C57BL/6J mice (age: 6 to 8 weeks, body weight 18-20 g, certificate number: 11400700238365) were purchased from Si Pei Fu (Beijing) Biotechnology Co., Ltd., and raised in an SPF-grade animal room of the Institute of Materia Medica, Chinese Academy of Medical Sciences, at a temperature of 20 to 25° C., a relative humidity of 40% to 70%, and a cycle of 12 hours of light and 12 hours of dark. The animals had free access to water and food. After 3 days of normal feeding, mice with good physical conditions after the veterinary examination were selected for this assay. Before grouping, a marker was used to mark on the base of the animals' tail. After grouping, each animal was marked with an ear cutout (7 mice in each group).
Assay animals: 42 7-week-old male C57 mice were used for animal testing after an adaptive feeding.
Group 1: blank control group;
The preparation of the R01 formulation administration test solution was the same as that in Example 5: an appropriate amount of the R01 formulation was weighed according to the three dosages set in the assay, respectively, and an appropriate volume of 0.5% CMC-Na aqueous solution was added. The mixture was vortexed and sonicated until mixed evenly, to give the administration test solutions with concentrations of […], respectively, which were ready for use.
Animal testing period: 7 days (excluding adaptive feeding), hereinafter referred to as: D1-D7.
1. The first group was a solvent control group: N=7, all mice were males (the same below); • a) 0.5% solution of sodium carboxymethyl cellulose was gavagely administered from D1 to D6 (twice a day for each animal, with an interval of 8 hours between the morning and the afternoon). • b) Physiological saline was intraperitoneally injected in one-time on D4. • c) On D7, blood was collected from the orbit for euthanasia (300 ul of serum was extracted), the left kidney was fixed in formaldehyde, and the right kidney was preserved in liquid nitrogen (WB study may be carried out).
1) The concentrations of urea nitrogen and creatinine in peripheral blood serum were tested.
The body weight of the animals when being grouped for administration in each group was recorded. The body weight and the kidney weight at the end of the assay were also recorded, and the kidney coefficient was calculated. The creatinine and urea nitrogen values in the blood samples sent for testing were recorded. The kidneys were stained with HE and PAS, and the slides were scanned. A report was issued after the pathological analysis.
The assay data were calculated and processed statistically using Microsoft Office Excel 2007 software. Unless otherwise specified, the data were expressed as mean±standard error (Mean±SE), and t-test was used for comparison between two groups.

N.N.[Cl][Pt][Cl] [DDP, cisplatin]
Mean animal body weight ([1]; D1): 20.8 ± 0.4 g
Mean animal body weight ([1]; D5): 20.3 ± 0.6 g
body weight loss rate ([1]; D5): (2.1%)
Mean animal body weight ([1]; D8): 20.5 ± 0.4 g
body weight loss rate ([1]; D8): (1.4%)
Mean animal body weight ([1]; D12): 19.4 ± 0.4 g
body weight loss rate ([1]; D12): (6.7%)
Mean animal body weight ([1]; D15): 19.9 ± 0.3 g
body weight loss rate ([1]; D15): (4.3%)
Mean animal body weight ([1]; D19): 19.0 ± 0.3 g
body weight loss rate ([1]; D19): (8.5%)
Mean animal body weight ([1]; D22): 19.5 ± 0.4 g
body weight loss rate ([1]; D22): (5.9%)
Mean animal body weight ([1]; D26): 17.7 ± 0.3 g
body weight loss rate ([1]; D26): (15%)
Mean animal body weight ([1]; D29): 17.9 ± 0.3 g
body weight loss rate ([1]; D29): (14%)
Mean animal body weight ([1]; D33): 18.7 ± 0.4 g
body weight loss rate ([1]; D33): (10%)
Mean animal body weight ([1]; D36): 18.7 ± 0.3 g
body weight loss rate ([1]; D36): (10%)

COC1=C(OC)C(=O)C(CCCCCCCCCCOC(=O)Cc2c(C)n(C(=O)c3ccc(Cl)cc3)c3ccc(OC)cc23)=C(C)C1=O [compound of formula (I)]
colony-forming ability (A549 cells): decreased significantly
serum urea nitrogen value ([2]; R01 high-dosage group (36 mg/kg bid) with cisplatin 10 mg/kg, P<0.05): significantly lower than that of the model group
serum urea nitrogen value vs model group ([2]; R01 low-dosage group (6 mg/kg bid) with cisplatin 10 mg/kg): no significant difference
serum urea nitrogen value vs model group ([2]; R01 medium-dosage group (18 mg/kg bid) with cisplatin 10 mg/kg): no significant difference
Urea nitrogen (Bun) level after the assay, x (mean) ([2]; R01 6 mg/kg): 16.1 mg/dL
Urea nitrogen (Bun) level after the assay, x (mean) ([2]; R01 18 mg/kg): 16.1 mg/dL
Urea nitrogen (Bun) level after the assay, x (mean) ([2]; R01 36 mg/kg): 13.7 mg/dL
Urea nitrogen (Bun) level after the assay ([2]; R01 6 mg/kg, listed as R01, 6 mg/kg): 28.3 mg/dL and 29.25 mg/dL and 10.62 mg/dL and 11.72 mg/dL and 13.85 mg/dL and 4.91 mg/dL and 14.1 mg/dL
Urea nitrogen (Bun) level after the assay ([2]; R01 18 mg/kg, listed as R01, 18 mg/kg): 13.41 mg/dL and 15.83 mg/dL and 19.59 mg/dL and 14.73 mg/dL and 10.38 mg/dL and 22 mg/dL and 16.55 mg/dL
Urea nitrogen (Bun) level after the assay ([2]; R01 36 mg/kg, listed as R01, 36 mg/kg): 12.39 mg/dL and 12.73 mg/dL and 14.32 mg/dL and 14.34 mg/dL and 9.98 mg/dL and 14 mg/dL and 17.8 mg/dL
